Assay results as given in PubChem BioAssay AID1963831 (Molecular Pharmacology Branch, DTP, NCI, 2024).

Tested on: 889142-216-R-J1-PDC complex spheroid viability
Assay: Anticancer human tumor 889142-216-R-J1-PDC patient-derived bladder carcinoma cell line growth inhibition [POLQ]
Conditions: for IC50: curve of first compound; for viability, T/C: stronger effect = lower value
In short: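 Patient-derived tumour cells were co-cultured with HUVEC and mesenchymal stem cells as multicellular spheroids at 37 °C. They were treated with POLQ inhibitors (novobiocin, ART-558, RP6685) alone or combined with other agents. Top concentrations were at or near clinical Cmax (otherwise 10 microM; SN-38 at 1 microM), decreasing in half-log steps.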

[1] = second compound 0.0316 µM, first compound 0.0316 µM
[2] = second compound 0.0316 µM, first compound 0.1 µM
[3] = second compound 0.0316 µM, first compound 0.316 µM
[4] = second compound 0.0316 µM, first compound 1 µM
[5] = second compound 0.1 µM, first compound 0.0316 µM
[6] = second compound 0.1 µM, first compound 0.1 µM
[7] = second compound 0.1 µM, first compound 0.316 µM
[8] = second compound 0.1 µM, first compound 1 µM
[9] = second compound 0.316 µM, first compound 0.0316 µM
[10] = second compound 0.316 µM, first compound 0.1 µM
[11] = second compound 0.316 µM, first compound 0.316 µM
[12] = second compound 0.316 µM, first compound 1 µM
[13] = second compound 1 µM, first compound 0.0316 µM
[14] = second compound 1 µM, first compound 0.1 µM
[15] = second compound 1 µM, first compound 0.316 µM
[16] = second compound 1 µM, first compound 1 µM
[17] = second compound 3.16 µM, first compound 0.0316 µM
[18] = second compound 3.16 µM, first compound 0.1 µM
[19] = second compound 3.16 µM, first compound 0.316 µM
[20] = second compound 3.16 µM, first compound 1 µM
[21] = second compound 10 µM, first compound 0.0316 µM
[22] = second compound 10 µM, first compound 0.1 µM
[23] = second compound 10 µM, first compound 0.316 µM
[24] = second compound 10 µM, first compound 1 µM
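Note: spheroids exposed to compounds for seven days.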
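Throughout, for viability, T/C: 100% = DMSO vehicle control viability.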

## COc1cccc(OCCCN)c1-c1cc(Nc2cnc(C#N)cn2)n[nH]1 + COC1C(OC(N)=O)C(O)C(Oc2ccc3c(O)c(NC(=O)c4ccc(O)c(CC=C(C)C)c4)c(=O)oc3c2C)OC1(C)C
Second compound 0.0316 µM
  IC50: 20.4 nM
Second compound 0.1 µM
  IC50: 19.8 nM
Second compound 0.316 µM
  IC50: 29.8 nM
Second compound 1 µM
  IC50: 17.5 nM
Second compound 3.16 µM
  IC50: 26.4 nM
Second compound 10 µM
  IC50: 20 nM
Second compound 0.0316 µM, first compound 0.00316 µM
  viability, T/C: 90.8%
Second compound 0.0316 µM, first compound 0.01 µM
  viability, T/C: 55.7%
[1]
  viability, T/C: 51.2%
[2]
  viability, T/C: 33.5%
[3]
  viability, T/C: 34.4%
[4]
  viability, T/C: 36.2%
Second compound 0.1 µM, first compound 0.00316 µM
  viability, T/C: 90%
Second compound 0.1 µM, first compound 0.01 µM
  viability, T/C: 63.5%
[5]
  viability, T/C: 41.1%
[6]
  viability, T/C: 31.6%
[7]
  viability, T/C: 31.5%
[8]
  viability, T/C: 30.9%
Second compound 0.316 µM, first compound 0.00316 µM
  viability, T/C: 73.2%
Second compound 0.316 µM, first compound 0.01 µM
  viability, T/C: 66.6%
[9]
  viability, T/C: 47.8%
[10]
  viability, T/C: 38.8%
[11]
  viability, T/C: 33.8%
[12]
  viability, T/C: 31.7%
Second compound 1 µM, first compound 0.00316 µM
  viability, T/C: 87%
Second compound 1 µM, first compound 0.01 µM
  viability, T/C: 57.5%
[13]
  viability, T/C: 40.9%
[14]
  viability, T/C: 36.7%
[15]
  viability, T/C: 35%
[16]
  viability, T/C: 30%
Second compound 3.16 µM, first compound 0.00316 µM
  viability, T/C: 78.3%
Second compound 3.16 µM, first compound 0.01 µM
  viability, T/C: 61.5%
[17]
  viability, T/C: 48%
[18]
  viability, T/C: 38.2%
[19]
  viability, T/C: 31.4%
[20]
  viability, T/C: 28.6%
Second compound 10 µM, first compound 0.00316 µM
  viability, T/C: 81.7%
Second compound 10 µM, first compound 0.01 µM
  viability, T/C: 58.5%
[21]
  viability, T/C: 45.6%
[22]
  viability, T/C: 33.8%
[23]
  viability, T/C: 34.4%
[24]
  viability, T/C: 30.7%

## CNCc1ccc(-c2[nH]c3cc(F)cc4c3c2CCNC4=O)cc1 + Nc1ccc(C#CCN(C(=O)Cc2ncc(C(F)(F)F)cc2C(F)(F)F)c2ccc(F)cc2)nn1
Second compound 0.0316 µM
  IC50: > 10000 nM
Second compound 0.1 µM
  IC50: > 10000 nM
Second compound 0.316 µM
  IC50: > 10000 nM
Second compound 1 µM
  IC50: > 10000 nM
Second compound 3.16 µM
  IC50: > 10000 nM
Second compound 10 µM
  IC50: > 10000 nM
[1]
  viability, T/C: 109%
[2]
  viability, T/C: 115%
[3]
  viability, T/C: 123%
[4]
  viability, T/C: 108%
Second compound 0.0316 µM, first compound 3.16 µM
  viability, T/C: 74.8%
Second compound 0.0316 µM, first compound 10 µM
  viability, T/C: 84.5%
[5]
  viability, T/C: 133%
[6]
  viability, T/C: 93%
[7]
  viability, T/C: 104%
[8]
  viability, T/C: 96.3%
Second compound 0.1 µM, first compound 3.16 µM
  viability, T/C: 107%
Second compound 0.1 µM, first compound 10 µM
  viability, T/C: 83.9%
[9]
  viability, T/C: 144%
[10]
  viability, T/C: 82.9%
[11]
  viability, T/C: 78.2%
[12]
  viability, T/C: 78.2%
Second compound 0.316 µM, first compound 3.16 µM
  viability, T/C: 81.2%
Second compound 0.316 µM, first compound 10 µM
  viability, T/C: 82.8%
[13]
  viability, T/C: 128%
[14]
  viability, T/C: 83.3%
[15]
  viability, T/C: 99.3%
[16]
  viability, T/C: 88.2%
Second compound 1 µM, first compound 3.16 µM
  viability, T/C: 92.3%
Second compound 1 µM, first compound 10 µM
  viability, T/C: 75.5%
[17]
  viability, T/C: 116%
[18]
  viability, T/C: 96.1%
[19]
  viability, T/C: 134%
[20]
  viability, T/C: 122%
Second compound 3.16 µM, first compound 3.16 µM
  viability, T/C: 106%
Second compound 3.16 µM, first compound 10 µM
  viability, T/C: 81.4%
[21]
  viability, T/C: 125%
[22]
  viability, T/C: 98.4%
[23]
  viability, T/C: 104%
[24]
  viability, T/C: 129%
Second compound 10 µM, first compound 3.16 µM
  viability, T/C: 108%
Second compound 10 µM, first compound 10 µM
  viability, T/C: 96.8%
